Experiment [1] concerns human Notch 1. Briefly: Notch-CBF1 Transactivation Assay (Notch 1). Format: cell-based. Particulars: HeLa cells transfected with truncated Notch 1 and CBF1 luciferase reporter; 18 hours incubation. The text has this: (§1) Notch-CBF1 Transactivation Assay
(§2) The Notch-CBF1 (C-promoter binding factor I) cell based transactivation assay is based on the ability of the released Notch intracellular domain fragments (NICDs) to function as transcription factors in conjunction with CBF1 and other nuclear factors. Luciferase assays were used to measure the antagonism of Notch-CBF1 transcriptional activity. HeLa cervical cancer cells are transiently co-transfected with pCDNA3.1/Hygro plasmids containing truncated Notch 1, Notch 2, Notch 3, or Notch 4 receptors and a PGL3 luciferase reporter vector containing 4 copies of CBF1 binding site. The cells were then tested for Notch-CBF1 activity in the absence or presence of test compounds. HeLa cells, maintained in DMEM (high glucose with HEPES), 1× glutamine/penicillin/streptomycin and 10% Fetal Bovine serum, were transiently transfected in a T175 Flask (4.5×10^6 cells/flask) using the Monster Transfection Kit (Minis #MIR2906) according to manufacturers specifications. Table 1 denotes respective DNA quantity for the transfections.
(§3) Six hours post-transfection, cells were trypsinized and plated into a 384-well black Poly-D-lysine coated tissue culture plate at a density of 5×10^3 cells/well in 95 μL assay media (DMEM (high glucose with HEPES), 1× glutamine/penicillin/streptomycin, 0.0125% BSA, 1× non-essential amino acids). Assay media (5 μL) containing test compounds in final concentrations ranging from 5 μM to 8.4×10^−5 μM (3 fold serial dilutions) were added to the cells and the cell plates were then incubated for 18 hours at 37° C. and 5% CO2. Control wells contained DMSO vehicle (total counts) or 0.5 μM of an in-house small molecule inhibitor (background counts). Duplicates were used for each sample. Luciferase activity was measured after a 20-minute incubation with 50 μl STEADY-GLO® luciferase reagents according to manufacturer's specifications (Promega, Cat. #E2550) and analyzed by Envision plate reader (PerkinElmer, Boston, Mass.).
(§4) The antagonist effect of compounds was expressed as 100×[1−(average sample−average background)/(average total−average background)] where sample is the luciferase activity in the presence of test compound, background is equal to the luciferase activity in the presence of the small molecule inhibitor control and the total is signal induced in DMSO wells.

Experiment [2] concerns human Notch 3. As to the kind of experiment: Notch-CBF1 Transactivation Assay (Notch 3). It is filed as cell-based. The conditions noted are these: HeLa cells transfected with truncated Notch 3 and CBF1 luciferase reporter; 18 hours incubation.
Source text: as §1, §2, §3, §4

Experiment [3] relates to human tumor xenografts. As to the kind of experiment: Human Tumor Xenograft Models in Mice (tumor type not stated). The conditions noted are these: for antitumor activity with oral administration (PO): Human Tumor Xenograft Models in mice. Format: in vivo. The text has this:
Human Tumor Xenograft Models in Mice
All rodents were obtained from Harlan Sprague Dawley Co. (Indianapolis, Ind.), and maintained in an ammonia-free environment in a defined and pathogen—free colony. All mice were quarantined approximately 1 week prior to their use for tumor propagation and drug efficacy testing. Mice were fed food and water ad libitum. The animal care program of Bristol-Myers Squibb Pharmaceutical Research Institute is fully accredited by the American Association for Accreditation of Laboratory Animal Care (AAALAC). All experiments were performed in accordance with Bristol-Myers Squibb (BMS) animal test methods and guidelines.
Tumor xenografts were grown and maintained subcutaneously (SC) in immunocompromized balb/c nu/nu nude or NOD-SCID mice (Harlan Sprague Dawley). Tumors were propagated as subcutaneous transplants in the appropriate mouse strain (Table 10) using tumor fragments obtained from donor mice.
The required numbers of animals needed to detect a meaningful response were pooled at the start of the experiment and each was given a subcutaneous implant of a tumor fragment (˜20 mg) with a 13-gauge trocar. Tumors were allowed to grow to the pre-determined size window (tumors outside the range were excluded) and animals were evenly distributed to various treatment and control groups. […]
Tumor response was determined by measurement of tumors with a caliper twice a week, until the tumors reached a predetermined “target” size of 0.5 gm or 1 gm depending on the tumor type. […]
Tumor response criteria are expressed in terms of tumor growth inhibition (% TGI). […] For this purpose, the tumor weight of a group is expressed as medium tumor weight (MTW).
Whenever possible, antitumor activity was determined at a range of dose levels up to the maximum tolerated dose (MTD) which is defined as the dose level immediately below which excessive toxicity (i.e., more than one death) occurred. When death occurred, the day of death was recorded. […]
(In general: A xenograft is tissue or cells of one species grown in another, often human tumour cells in immunodeficient mice.)

Structures are written as SMILES.

One may read the IC50 as the midpoint of a concentration-inhibition curve. A low value points to inhibition by little substance. On to `NC(=O)[C@@H](c1ccccc1)[C@@H](CCC(F)(F)F)C(=O)N[C@H]1N=C(c2ccccc2)c2cccc3c2N(CCN3)C1=O` [Example 27, (2R,3R)—N-((6S)-5-Oxo-8-phenyl-2,3,5,6-tetrahydro-1H-[1,4]diazepino[1,7,6-de]quinoxalin-6-yl)-3-phenyl-2-(3,3,3-trifluoropropyl)succinamide], for which the half-maximal inhibitory concentration (IC50) in experiment [1] was determined as 0.0151 µM.
For `NC(=O)[C@@H](CCCF)[C@@H](CCC(F)(F)F)C(=O)N[C@H]1N=C(c2ccccc2)c2cccc3c2N(CCO3)C1=O` [Example 8, (2R,3S)-3-(3-Fluoropropyl)-N-((6S)-5-oxo-8-phenyl-2,3,5,6-tetrahydro[1,4]oxazino[2,3,4-jk][1,4]benzodiazepin-6-yl)-2-(3,3,3-trifluoropropyl)succinamide], the IC50 in experiment [1] worked out at 0.0148 µM; in experiment [2], 0.0281 µM.
`NC(=O)[C@@H](CC1CC1)[C@@H](CCC(F)(F)F)C(=O)N[C@H]1N=C(c2ccccc2)c2cccc3c2N(CCCO3)C1=O` [Example 23, (2R,3S)-3-(Cyclopropylmethyl)-N-((7S)-6-oxo-9-phenyl-3,4,6,7-tetrahydro-2H-[1,4]diazepino[1,7,6-ef][1,5]benzoxazepin-7-yl)-2-(3,3,3-trifluoropropyl)succinamide] returned an IC50 in experiment [2] of 0.0142 µM.
Still for that read-out and setting: to `NC(=O)[C@@H](CC1CC1)[C@@H](CCC(F)(F)F)C(=O)N[C@H]1N=C(c2ccccc2)c2cccc3c2N(CCO3)C1=O` [Example 6, (2R,3S)-3-(Cyclopropylmethyl)-N-((6S)-5-oxo-8-phenyl-2,3,5,6-tetrahydro[1,4]oxazino[2,3,4-jk][1,4]benzodiazepin-6-yl)-2-(3,3,3-trifluoropropyl)succinamide] belongs 0.0148 µM.
Turning to `CCC[C@H](C(N)=O)[C@@H](CCC(F)(F)F)C(=O)N[C@H]1N=C(c2ccccc2)c2cccc3c2N(CCN3)C1=O` [Example 25, (2R,3S)—N-((6S)-5-Oxo-8-phenyl-2,3,5,6-tetrahydro-1H-[1,4]diazepino[1,7,6-de]quinoxalin-6-yl)-3-propyl-2-(3,3,3-trifluoropropyl)succinamide], the values for the IC50 in experiment [1] and in experiment [2] were 0.0145 µM and 0.0169 µM, respectively.
For `Cc1nocc1[C@H](C(N)=O)[C@@H](CCC(F)(F)F)C(=O)N[C@H]1N=C(c2ccccc2)c2cccc3c2N(CCN3)C1=O` [Example 24, (2R,3R)-3-(3-Methyl-4-isoxazolyl)-N-((6S)-5-oxo-8-phenyl-2,3,5,6-tetrahydro-1H-[1,4]diazepino[1,7,6-de]quinoxalin-6-yl)-2-(3,3,3-trifluoropropyl)succinamide], in that order: 0.0169 µM and 0.0283 µM.
The compound `Cc1cccc(C2=N[C@H](NC(=O)[C@H](CCC(F)(F)F)[C@@H](C(N)=O)c3ccccc3)C(=O)N3CCOc4cccc2c43)c1` [Example 13, (2R,3R)—N-((6S)-8-(3-Methylphenyl)-5-oxo-2,3,5,6-tetrahydro[1,4]oxazino[2,3,4-jk][1,4]benzodiazepin-6-yl)-3-phenyl-2-(3,3,3-trifluoropropyl)succinamide] came in with a half-maximal inhibitory concentration (IC50) in experiment [1] of 0.0148 µM.
As for `Cc1nocc1[C@H](C(N)=O)[C@@H](CCC(F)(F)F)C(=O)N[C@H]1N=C(c2ccccc2)c2cccc3c2N(CC(F)(F)CO3)C1=O` [Example 1, (2R,3R)—N-((7S)-3,3-Difluoro-6-oxo-9-phenyl-3,4,6,7-tetrahydro-2H-[1,4]diazepino[1,7,6-ef][1,5]benzoxazepin-7-yl)-3-(3-methyl-4-isoxazolyl)-2-(3,3,3-trifluoropropyl)succinamide], the “antitumor activity with oral administration (PO)” value in experiment [3] is listed as “showed antitumor activity”. Further, in experiment [3] (human tumor xenografts implanted in mice, IV), the “antitumor activity, intravenous route (IV)” value is on record as “exhibited antitumor activity”.
For the compound `Cc1cccc(C2=N[C@H](NC(=O)[C@H](CCC(F)(F)F)[C@H](CCC(F)(F)F)C(N)=O)C(=O)N3CCOc4cccc2c43)c1` [Example 11, (2R,3S)—N-((6S)-8-(3-Methylphenyl)-5-oxo-2,3,5,6-tetrahydro[1,4]oxazino[2,3,4-jk][1,4]benzodiazepin-6-yl)-2,3-bis(3,3,3-trifluoropropyl)succinamide], half-maximal inhibition in experiment [2] (IC50) required 0.0147 µM.
For the compound `NC(=O)[C@@H](CC1CC1)[C@@H](CC1CC1)C(=O)N[C@H]1N=C(c2ccccc2)c2cccc3c2N(CCO3)C1=O` [Example 18, (2R,3S)-2,3-Bis(cyclopropylmethyl)-N-((6S)-5-oxo-8-phenyl-2,3,5,6-tetrahydro[1,4]oxazino[2,3,4-jk][1,4]benzodiazepin-6-yl)succinamide], the IC50 in experiment [1] is 0.0219 µM; in experiment [2], 0.0164 µM.
For `CCC[C@@H](C(=O)N[C@H]1N=C(c2ccccc2)c2cccc3c2N(CCO3)C1=O)[C@H](CCC(F)(F)F)C(N)=O` [Example 17, (2R,3S)—N-((6S)-5-Oxo-8-phenyl-2,3,5,6-tetrahydro[1,4]oxazino[2,3,4-jk][1,4]benzodiazepin-6-yl)-2-propyl-3-(3,3,3-trifluoropropyl)succinamide], in that order: 0.0139 µM and 0.0201 µM.
For `CCC[C@H](C(N)=O)[C@@H](CCC(F)(F)F)C(=O)N[C@H]1N=C(c2cccc(Cl)c2)c2cccc3c2N(CCO3)C1=O` [Example 15, (2R,3S)—N-((6S)-8-(3-Chlorophenyl)-5-oxo-2,3,5,6-tetrahydro[1,4]oxazino[2,3,4-jk][1,4]benzodiazepin-6-yl)-3-propyl-2-(3,3,3-trifluoropropyl)succinamide], in that order: 0.0169 µM and 0.0283 µM.
For the compound `NC(=O)[C@@H](CC1CC1)[C@@H](CCC(F)(F)F)C(=O)N[C@H]1N=C(c2ccccc2)c2cccc3c2N(CC(F)(F)CO3)C1=O` [Example 2, (2R,3S)-3-(Cyclopropylmethyl)-N-((7S)-3,3-difluoro-6-oxo-9-phenyl-3,4,6,7-tetrahydro-2H-[1,4]diazepino[1,7,6-ef][1,5]benzoxazepin-7-yl)-2-(3,3,3-trifluoropropyl)succinamide], the “antitumor activity with oral administration (PO)” value in experiment [3] is “showed antitumor activity”.

The values above are taken from patent US9249157B2, “Tricyclic heterocycle compounds” (BRISTOL-MYERS SQUIBB COMPANY, priority 2012, dated 2016).
